Laboratory results published in publication PMC8704315, “Lichen-Derived Compounds and Extracts as Biologically Active Substances with Anticancer and Neuroprotective Properties” (Pharmaceuticals, 2021).
Entries after “also recorded” stand apart in the source; their conditions may differ. Where two headings read alike, the source gives them in different places.

Experiments:
[1] = molecular target: T1, indoleamine 2,3-dioxygenases 1 (IDO1) (Homo sapiens, UniProt P14902); test: Universal IDO1/IDO2/TDO Inhibitor Screening Assay Kit, IDO1; assay type: biochemical; settings: ± SEM, three measurements
T1 construct: purchased BPS Bioscience, Inc. (San Diego, CA, USA)
T1 sequence (P14902 whole entry, species assumed): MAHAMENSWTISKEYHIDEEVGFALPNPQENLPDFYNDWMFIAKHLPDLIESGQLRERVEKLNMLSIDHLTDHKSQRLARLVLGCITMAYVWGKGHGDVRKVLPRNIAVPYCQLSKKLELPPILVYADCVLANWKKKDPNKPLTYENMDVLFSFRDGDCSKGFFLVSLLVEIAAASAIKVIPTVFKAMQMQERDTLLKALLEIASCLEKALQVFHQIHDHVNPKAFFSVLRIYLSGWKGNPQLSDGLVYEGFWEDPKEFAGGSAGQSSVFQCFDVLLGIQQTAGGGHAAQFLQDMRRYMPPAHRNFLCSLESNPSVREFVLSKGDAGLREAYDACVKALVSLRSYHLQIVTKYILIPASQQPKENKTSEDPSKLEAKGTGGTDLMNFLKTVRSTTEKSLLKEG

[2] = molecular target: T2, indoleamine 2,3-dioxygenases 2 (IDO2) (Homo sapiens, UniProt Q6ZQW0); test: Universal IDO1/IDO2/TDO Inhibitor Screening Assay Kit, IDO2; assay type: biochemical; settings: for inhibition at 100 µg/mL: read-out: Inhibition (%) IDO2
T2 construct: purchased BPS Bioscience, Inc. (San Diego, CA, USA)
T2 sequence (Q6ZQW0 1-407): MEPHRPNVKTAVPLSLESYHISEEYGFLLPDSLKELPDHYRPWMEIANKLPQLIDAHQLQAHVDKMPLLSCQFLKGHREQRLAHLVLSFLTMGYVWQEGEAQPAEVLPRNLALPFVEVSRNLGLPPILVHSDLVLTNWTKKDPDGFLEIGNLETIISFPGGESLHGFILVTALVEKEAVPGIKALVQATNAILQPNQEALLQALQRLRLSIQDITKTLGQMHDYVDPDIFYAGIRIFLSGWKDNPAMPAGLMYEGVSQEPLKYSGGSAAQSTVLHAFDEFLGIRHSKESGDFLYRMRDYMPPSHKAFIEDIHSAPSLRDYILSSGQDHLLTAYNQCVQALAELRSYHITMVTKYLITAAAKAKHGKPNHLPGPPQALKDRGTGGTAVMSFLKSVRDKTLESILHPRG
Experimental: This colorimetric assay is based on the measurement of the ability of IDO1, IDO2 and TDO to convert L-tryptophan into N-formylkynurenine (NFK). The experiments were performed according to the manufacturer’s guidelines. The final concentration of the compounds and extracts in the reaction mixture was 100 µg/mL. The amount of NFK was measured spectrophotometrically at 320 nm using an Epoch BioTek microplate reader (BioTek Instruments, Inc., Winooski, VT, USA). The samples were run in triplicate and the results were expressed as mean ± SEM.

[3] = DPPH radical scavenging assay; settings: highest concentration 750.0 µg/mL for substances, 2500.0 µg/mL for extracts; ± SEM, n = 3
[4] = molecular target: T3, glutathione peroxidase (GPx) (Bos taurus, UniProt P00435); test: Effect on glutathione peroxidase activity; assay type: biochemical; settings: for inhibition at 243.9 µg/mL: read-out: GPx Inhibition under Reaction Conditions (%)
T3 construct: purchased Sigma G6137
T3 sequence (P00435 1-205): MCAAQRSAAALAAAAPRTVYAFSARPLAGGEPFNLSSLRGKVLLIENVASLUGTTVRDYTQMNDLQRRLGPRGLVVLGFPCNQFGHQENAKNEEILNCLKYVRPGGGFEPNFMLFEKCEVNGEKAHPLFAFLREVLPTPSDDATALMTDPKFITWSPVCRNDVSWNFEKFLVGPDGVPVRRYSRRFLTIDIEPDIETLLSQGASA
Experimental: Sample (20 µL, 5 mg/mL of pure DMSO) was mixed with 8 μL of EDTA solution, 10 μL of glutathione reductase (0.2 U Sigma G3664), 4 μL of GSH solution, 10 μL of glutathione peroxidase (0.04 U Sigma G6137), 22 μL of H2O2 and 332 μL of 50 mM sodium phosphate, pH 7.0). To start the reaction, 4 μL of NADPH solution (N5130) was added and the decrease in the absorbance (340 nm) was read after 10 min of incubation at 25 °C. All solutions were prepared in 50 mM buffer and concentrations of reagents in the final mixture were as follows: 1mM EDTA, 0.2 U glutathione reductase, 2 mM GSH, 0.04 U glutathione peroxidase, 1.5 mM H2O2 and 0.8 mM NADPH. Blank sample was prepared with buffer instead of the studied sample and background was measured (mixture containing studied sample and buffer only). One unit of enzyme activity was defined as nMol of NADPH consumed/min·mL sample, in comparison with nMol of NADPH consumed/min in blank (reagent) sample [76].

AChE = AChE (Homo sapiens, UniProt P22303); assay type: biochemical; settings: sample 142.9 μg/mL in the reaction mixture; further: key: -: not active
AChE, sequence (P22303 32-614): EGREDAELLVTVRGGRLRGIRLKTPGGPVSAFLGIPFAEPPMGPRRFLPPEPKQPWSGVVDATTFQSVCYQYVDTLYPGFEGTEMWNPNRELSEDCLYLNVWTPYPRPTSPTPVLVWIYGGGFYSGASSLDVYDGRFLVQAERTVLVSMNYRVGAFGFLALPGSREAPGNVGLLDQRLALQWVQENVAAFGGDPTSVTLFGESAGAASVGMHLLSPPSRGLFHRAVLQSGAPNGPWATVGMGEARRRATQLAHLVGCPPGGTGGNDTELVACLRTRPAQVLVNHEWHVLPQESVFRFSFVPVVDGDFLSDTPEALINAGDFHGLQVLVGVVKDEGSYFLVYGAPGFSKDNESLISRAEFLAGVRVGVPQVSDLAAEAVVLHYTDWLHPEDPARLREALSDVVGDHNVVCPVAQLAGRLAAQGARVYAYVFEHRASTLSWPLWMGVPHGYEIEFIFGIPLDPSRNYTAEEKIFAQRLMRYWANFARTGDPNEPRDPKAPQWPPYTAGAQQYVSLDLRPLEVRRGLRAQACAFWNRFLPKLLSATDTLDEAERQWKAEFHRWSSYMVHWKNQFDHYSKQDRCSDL
Experimental: Ellman’s colorimetric method was used with modifications described previously. Tested sample (10 μL) at concentration 5 mg/mL was mixed with 20 μL of AChE (or BChE) solution (0.28 U/mL) and completed after 5 min with 35 μL of ATChI (or BTCh) (1.5 mmol/L), 175 μL of 0.3 mmol/L DTNB (containing 10 mmol/L NaCl and 2 mmol/L MgCl2) and 110 μL with Tris-HCl buffer (50 mmol/L, pH 8.0). Samples containing 10 μL of Tris-HCl buffer instead of the studied sample were run in the same way (“blank” samples). The increase in the absorbance due to the spontaneous hydrolysis of the substrate was monitored using “blank” samples containing ATCh (or BTCh) and DTNB completed to 350 μL with Tris-HCl buffer. All samples were incubated at 22 °C (30 min; incubation time was determined after optimization experiments, details not shown), and the absorbance was measured (405 nm, 96-well microplate reader, Tecan Sunrise, Grödig, Austria). The “false-positive” effect of studied compounds was measured according to Rhee et al. with minor modifications, as described previously: after mixing of the substrate with the enzyme and buffer, the “false-positive” sample was left for incubation. Then, a studied sample and DTNB were added, followed by an immediate measurement of the absorbance.
Reference cholinesterase inhibitors were used for the calculations of results (eserine, neostigmine, magniflorine, rivastigmine and donepezil). For this purpose, for each compound, 16 dilutions in pure DMSO were prepared (2.57–41.14 μg/mL). These solutions (10 μL) were tested as described above and calibration curves were produced.
Each sample was analyzed in at least eight repeats, and all solutions used in a set of analyses were prepared in the same buffer. For calculations, the background of the sample (10 μL mixed with 340 μL of Tris buffer) was measured at 405 nm and subtracted during calculations. Then, the absorbance of the test sample was subtracted from the absorbance of the “blank” sample.

[5] = 243.9 μg/mL in the reaction mixture
[6] = 100 µg/mL, read-out: Inhibition (%) IDO1

Compound | Inhibition (%) IDO1 ([1]; 100 µg/mL) | inhibition at 100 µg/mL ([1]; read-out: Inhibition (%) IDO1, 100 µg/mL) [%] | inhibition at 100 µg/mL [2] [%] | DPPH IC50 [3] [mg/L] | GPx Inhibitory Activity (nMol Depleted NADPH/min Incubation) [4, 5] | inhibition at 243.9 µg/mL [4] [%] | Equivalent Reference Concentration, Donepezil, AChE (AChE) | Equivalent Reference Concentration, Eserine, AChE (AChE) | Equivalent Reference Concentration, Magniflorine, AChE (AChE) | Equivalent Reference Concentration, Neostygmine, AChE (AChE) | Equivalent Reference Concentration, Rivastigmine, AChE (AChE) | inhibition at 100 µg/mL [1, 6] [%] | inhibition at 100 µg/mL ([2]; 100 µg/mL) [%] | inhibition at 243.9 µg/mL [4, 5] [%] | Inhibition (%) IDO2 ([2]; 100 µg/mL) | GPx Inhibition under Reaction Conditions (%) [4, 5]
CC(=O)C1=C(O)C=C2Oc3c(C(C)=O)c(O)c(C)c(O)c3C2(C)C1=O (single isomer, unassigned; (-)) [(−)-Usnic acid, (−)-usnic acid] | 21.6 ± 0.9% | 21.6 ± 0.85 | < 10 | >750.0 | 27.3 ± 1.3 nMol Depleted NADPH/min Incubation | 13.7 ± 2.3 | - | - | - | - | - |  |  |  |  | 
COc1cc(C)c(C(=O)Oc2cc(C)c(C(=O)O)c(O)c2)c(O)c1 [Evernic acid, evernic acid] | 32.8 ± 1.9% |  |  | >750.0 | 39.9 ± 1.0 nMol Depleted NADPH/min Incubation |  | - | - | - | - | - | 32.8 ± 1.93 | < 10 | 20 ± 2.1 |  | 
Cc1cc(O)c(C=O)c2c1C(=O)Oc1c(CO)c(O)c3c(c1O2)C(O)OC3=O (stereo not drawn) [Salazinic acid, salazinic acid] | did not exhibit any inhibition effect; also recorded: not active |  |  | >750.0 |  |  | - | - | - | - | - | < 10 | < 10 |  | did not exhibit any inhibition effect | -
